Measurements from PubChem BioAssay (NCI).
Values joined by “and” are separate entries in the source; they are usually repeats but may differ in a detail not shown here. Identical values can stand only once.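 Cultured in 96-well plates, cells were exposed to test compound for 48 hours across five concentrations. Abbreviation: GI50, concentration required for 50% inhibition of growth. TGI denotes the concentration required for complete inhibition of growth.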 Active and inactive are the calls of the source. No stated cut-off is given here; in the data, active means GI50 below about 0.43 µM; inactive means the rest.

Test system: MDA-MB-468 breast
Experiment: growth of human tumour cells (NCI), 48 h

Row | SMILES | GI50 | TGI | outcome
1 | CCN(CC)CCCC(C)N=C(C1=C(C(=NC(C)CCCN(CC)CC)c2cccc(OC)c2)C(=O)NC1=O)c1cccc(OC)c1 (stereo not given) | 0.869 µM | 2.07 µM | –
2 | COc1ccccc1CNCCCN1C(=O)c2ccc3c4c(ccc(c24)C1=O)C(=O)N(CCCCNCCCN)C3=O | 0.267 µM | 0.835 µM | –
3 | COc1ccc2c(c1)CC[C@H](O)/C2=C/c1cc(OC)c(OC)c(OC)c1 | 0.2 µM | 15.8 µM | –
4 | COc1ccc(C(=O)c2cc3c(N)c(C(=O)Nc4ccc(C)cc4)sc3nc2C)cc1 | 1.87 µM | 7.08 µM | –
5 | N#Cc1c(NC(=O)c2ccccc2C(F)(F)F)sc2c1CCC(=O)C2 | 1.69 µM | 4.68 µM | –
6 | CCCC(CCC)C(=O)OCC1(CO)C/C(=C\c2ccc(F)cc2)C(=O)O1 (stereo not given) | 11.3 µM | 24.2 µM | –
7 | COc1cc(CNc2ccccc2C(=O)N2CCN(C(=O)c3cc(-c4cc(OC)c(OC)c(OC)c4)n4nc(-c5ccccc5)cc4n3)CC2)cc(OC)c1OC | 2.1 µM | 8.45 µM | –
8 | COc1cc(-c2nc(-c3nc4ccccc4[nH]3)cc3c2[nH]c2ccccc23)cc(OC)c1OC | 3.32 µM | > 100 µM | –
9 | CNC(=O)Cc1nc(-c2cccc(NS(=O)(=O)c3c(F)cccc3F)c2F)c(-c2ccnc(Nc3ccccc3)n2)s1 | > 23.4 µM | > 50 µM | –
10 | CCOC(=O)CC1C(COC(=O)NC)OC(n2cnc3c(NC(=O)Nc4ccccc4)ncnc32)C1O[Si](C)(C)C(C)(C)C (stereo not given) | 19.7 µM | 94.1 µM | –
11 | Cc1cc(CC(C)CC(C)(C)C)n(O)c(=O)c1 (stereo not given) (tested in a mixture with another compound) | 0.273 µM | 1.06 µM | –
12 | Cc1sc2c(c1C)C(c1ccc(Cl)cc1)=N[C@@H](CC(=O)OC(C)(C)C)c1nnc(C)n1-2 | 0.0708 µM and 0.112 µM | 1.52 µM and 10.8 µM | –
13 | COC(=O)c1cc(O)c2c(c1C(=O)OC)C[C@H]1[C@@H]3CC=C4C[C@@H](O)CC[C@]4(C)[C@H]3CC[C@]21C | 2.87 µM | 18.1 µM | –
14 | CO[C@H](C(=O)[C@@H](O)[C@@H](C)O)[C@@H]1Cc2cc3cc(OC4CC(OC5CC(O)C(O)C(C)O5)C(O)C(C)O4)c(C)c(O)c3c(O)c2C(=O)[C@H]1OC1CC(OC2CC(OC3CC(C)(O)C(O)C(C)O3)C(O)C(C)O2)C(O)C(C)O1 (stereo not given in full) | – | – | inactive
15 | COc1cccc(C2c3cc4c(cc3OC(N3CCCC3)C2C)OCO4)c1O (stereo not given) | 3.33 µM | 15.8 µM | –
16 | COc1cc(Nc2nc3ccccc3cc2C(=O)Nc2ccc(F)c(F)c2)cc(OC)c1OC | 2.01 µM | 6.58 µM | –
17 | NC(=O)c1cccc(Nc2nccc(Nc3cccc4[nH]ncc34)n2)c1 | 2.12 µM | 9.35 µM | –
18 | O=C1/C(=C\c2ccccn2)c2ccccc2N1c1c(Cl)cccc1Cl | 1.26 µM | 3.1 µM | –
19 | Cc1ccc(N(CC(=O)Nc2ccc(S(=O)(=O)N3CCC(N4CCCC4)CC3)cc2)S(=O)(=O)c2ccc(Cl)cc2)cc1 | 1.65 µM | 3.48 µM | –

Row | SMILES | GI50 | TGI | outcome
20 | OCC(O)c1nc2ccc3[nH]ncc3c2c2c1CCCC2 (stereo not given) | 1.04 µM | 2.11 µM | –
21 | Cc1cc(N2CCSCC2)nc(NC2CCCC(Nc3ccnc4cc(Cl)ccc34)C2)n1 (stereo not given) | 1.58 µM | 3.35 µM | –
22 | CC(C)(C)[Si](C)(C)OC1[C@@H](O[Si](C)(C)C(C)(C)C)[C@@H](CNC(=O)NC(=O)CCl)O[C@H]1n1cnc2c(NC(=O)Nc3ccccc3)ncnc21 (stereo not given in full) | 0.839 µM | 1.91 µM | –
23 | O=C(OCc1ncc(-c2ccc(C(F)(F)F)cc2)c(NC2CCCCCC2)n1)c1c(F)c(F)c(F)c(F)c1F | 2 µM | 5.01 µM | –
24 | Cc1ccc(C)c(C2NC(=O)c3ccccc3N2)c1 (stereo not given) | 4.38 µM | > 100 µM | –
25 | O=C(N/N=C/c1ccc([N+](=O)[O-])s1)c1[nH]c2ccc(Br)cc2c1-c1ccccc1 | 0.731 µM | 22.2 µM | –
26 | C=C1CCC2C(C)(COC(=O)CC)C(OC(=O)CC)CCC2(C)C1C/C=C1/C(=O)OCC1OC(=O)CC (stereo not given) | 1.74 µM | 3.4 µM | –
27 | Cc1nc(N2CCC3(CC2)CO[C@@H](C)[C@H]3N)c(CO)nc1Sc1ccnc(N)c1Cl | 0.228 µM | 4.86 µM | –
28 | CCN(CC)CCCNC(=O)c1c2c(n3ccccc13)C(=O)c1ncccc1C2=O | 0.283 µM | 1.08 µM | –
29 | COc1ccc2[nH]cc(-c3nc(N)nnc3-c3cn(C)c4ccc(Br)cc34)c2c1 | 0.698 µM | 16 µM | –
30 | CC(C)(C)CC(C)(C)NCc1cc(C(C)(C)C)cc(CNC(C)(C)CC(C)(C)C)c1O | 1.26 µM | 2.85 µM | –
31 | CCC(CNc1cc(OC)cc2cccnc12)NC1CCCCC1 (stereo not given) | 7.66 µM | 35.5 µM | –
32 | COc1cccc(NC(=O)c2sc3nc4c(cc3c2N)C(=O)CCC4)c1 | 0.0467 µM | > 100 µM | –
33 | CN1C(=O)N[C@H]2[C@@H]3NC(=O)c4ccc(Br)n4[C@@H]3C[C@]21O | 0.0253 µM | 0.173 µM | –
34 | Nc1nc(N)c2cc(NCc3ccc(Cl)c(Cl)c3)ccc2n1 | 1.06 µM | 2.23 µM | –
35 | O=C(Nc1ccc(-n2ccc3c(NC(=O)c4ccccc4)ncnc32)cc1)Nc1cccc(Cl)c1Cl | 1.18 µM | 3.42 µM | –
36 | COc1ccc(/C=N\Nc2ccc([N+](=O)[O-])cn2)cc1OC | > 100 µM | > 100 µM | –
37 | Cn1c2ccc(Br)cc2c2c3c(c4c5ccccc5[nH]c4c21)C(=O)N(O)C3=O | 0.214 µM | 0.638 µM | –
38 | O=C(/C=C/c1ccccc1)n1c(-c2ccc(Cl)cc2)nc2ccccc21 | 1.52 µM | 4.32 µM | –
